# In ChEMBL document CHEMBL4118071, “Discovery of unsymmetrical aromatic disulfides as novel inhibitors of SARS-CoV main protease: Chemical synthesis, biological evaluation, molecular docking and 3D-QSAR study” (Eur J Med Chem, 2017):
# Activity calls are given as the source filed them. The rule behind the calls is not given here.
# Experiments:
# [1] = test system: Severe acute respiratory syndrome-related coronavirus; settings: 2 to 4 uM
# [2] = Inhibition of SARS coronavirus Mpro using MCA-AVLQSGFR-Lys(Dnp)-Lys-NH as substrate by fluorescence assay; design: species or system Severe acute respiratory syndrome-related coronavirus
# [3] = test system: Severe acute respiratory syndrome-related coronavirus
smiles,measurement,setting,value
Brc1ccc(SSc2ncccn2)cc1,inhibition,[1],Active
CCOC(=O)/C=C/[C@H](C[C@@H]1CCNC1=O)NC(=O)[C@H](CCC(C)C)NC(=O)[C@@H](NC(=O)[C@@H](NC(=O)c1ccco1)C(C)C)C(C)C,Ki,[2],6.7 µM
Clc1ccc(SSc2nnco2)cc1,alphaKi,[3],0.2 µM
